Patent publication US9896435B2, “N-pyrrolidinyl,N′-pyrazolyl-urea, thiourea, guanidine and cyanoguanidine compounds as TrkA kinase inhibitors” (Array BioPharma Inc., priority 2012, dated 2018)

Legend:
Assay in all cases: KinaseProfiler off-target kinase profiling
Type in all cases: biochemical
Details in all cases: 10 μM, ATP near Km
AURKA = AURKA (Homo sapiens (Human), UniProt O14965)
Outline: (§1)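 Single-concentration screen: 10 μM compound, ATP set close to the Km of each individual kinase. Output is percent of control averaged over duplicate wells.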

CDK9/cyclinT1 = CDK9/cyclinT1 (Homo sapiens (Human), UniProt P50750)
Outline: as §1

LIMK1 = LIMK1 (Homo sapiens (Human), UniProt P53667)
Outline: as §1

Pim-2 = Pim-2 (Homo sapiens (Human), UniProt Q9P1W9)
Outline: as §1

JNK2alpha2 = JNK2alpha2 (Homo sapiens (Human), UniProt P45984)
Outline: as §1

MINK = MINK (Homo sapiens (Human), UniProt Q8N4C8)
Outline: as §1

MSSK1 = MSSK1 (Homo sapiens (Human), UniProt Q9UPE1)
Outline: as §1

JAK3 = JAK3 (Homo sapiens (Human), UniProt P52333)
Outline: as §1

MRCKalpha = MRCKalpha (Homo sapiens (Human), UniProt Q5VT25)
Outline: as §1

KIT = KIT (Homo sapiens (Human), UniProt P10721)
Outline: as §1

JNK3 = JNK3 (Homo sapiens (Human), UniProt P53779)
Outline: as §1

p38delta = p38delta (Homo sapiens (Human), UniProt O15264)
Outline: as §1

DAPK2 = DAPK2 (Homo sapiens (Human), UniProt Q9UIK4)
Outline: as §1

EphA8 = EphA8 (Homo sapiens (Human), UniProt P29322)
Outline: as §1

Mer = Mer (Homo sapiens (Human), UniProt Q12866)
Outline: as §1

ErbB4 = ErbB4 (Homo sapiens (Human), UniProt Q15303)
Outline: as §1

PDGFRalpha = PDGFRalpha (Homo sapiens (Human), UniProt P16234)
Outline: as §1

ROCK-II = ROCK-II (Homo sapiens (Human), UniProt O75116)
Outline: as §1

Flt1 = Flt1 (Homo sapiens (Human), UniProt P17948)
Outline: as §1

CDK3/cyclinE = CDK3/cyclinE (Homo sapiens (Human), UniProt Q00526)
Outline: as §1

p38alpha = p38alpha (Homo sapiens (Human), UniProt Q16539)
Outline: as §1

DRAK1 = DRAK1 (Homo sapiens (Human), UniProt Q9UEE5)
Outline: as §1

IRAK1 = IRAK1 (Homo sapiens (Human), UniProt P51617)
Outline: as §1

TrkB = TrkB (Homo sapiens (Human), UniProt Q16620)
Outline: as §1

Plk2 = Plk2 (Homo sapiens (Human), UniProt Q9NYY3)
Outline: as §1

NEK2 = NEK2 (Homo sapiens (Human), UniProt P51955)
Outline: as §1

HIPK2 = HIPK2 (Homo sapiens (Human), UniProt Q9H2X6)
Outline: as §1

NEK11 = NEK11 (Homo sapiens (Human), UniProt Q8NG66)
Outline: as §1

p70S6K = p70S6K (Homo sapiens (Human), UniProt P23443)
Outline: as §1

JAK2 = JAK2 (Homo sapiens (Human), UniProt O60674)
Outline: as §1

HIPK3 = HIPK3 (Homo sapiens (Human), UniProt Q9H422)
Outline: as §1

Syk = Syk (Homo sapiens (Human), UniProt P43405)
Outline: as §1

WNK2 = WNK2 (Homo sapiens (Human), UniProt Q9Y3S1)
Outline: as §1

Rsk2 = Rsk2 (Homo sapiens (Human), UniProt P51812)
Outline: as §1

ERK2 = ERK2 (Homo sapiens (Human), UniProt P28482)
Outline: as §1

CDK5/p35 = CDK5/p35 (Homo sapiens (Human), UniProt Q00535)
Outline: as §1

NEK3 = NEK3 (Homo sapiens (Human), UniProt P51956)
Outline: as §1

PKCdelta = PKCdelta (Homo sapiens (Human), UniProt Q05655)
Outline: as §1

SRPK1 = SRPK1 (Homo sapiens (Human), UniProt Q96SB4)
Outline: as §1

Ros = Ros (Homo sapiens (Human), UniProt P08922)
Outline: as §1

Sequence of DRAK1 (Q9UEE5 whole entry): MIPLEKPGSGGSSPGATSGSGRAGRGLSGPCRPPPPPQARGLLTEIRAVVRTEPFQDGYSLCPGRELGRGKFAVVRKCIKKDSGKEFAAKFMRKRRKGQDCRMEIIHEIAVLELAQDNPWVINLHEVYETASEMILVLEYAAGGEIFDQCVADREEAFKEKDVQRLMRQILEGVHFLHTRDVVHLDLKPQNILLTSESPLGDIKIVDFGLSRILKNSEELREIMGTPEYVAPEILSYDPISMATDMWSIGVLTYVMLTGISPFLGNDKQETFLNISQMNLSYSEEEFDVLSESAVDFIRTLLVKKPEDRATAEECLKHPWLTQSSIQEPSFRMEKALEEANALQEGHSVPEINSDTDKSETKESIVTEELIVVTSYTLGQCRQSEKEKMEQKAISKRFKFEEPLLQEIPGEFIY
Sequence of DAPK2 (Q9UIK4 whole entry): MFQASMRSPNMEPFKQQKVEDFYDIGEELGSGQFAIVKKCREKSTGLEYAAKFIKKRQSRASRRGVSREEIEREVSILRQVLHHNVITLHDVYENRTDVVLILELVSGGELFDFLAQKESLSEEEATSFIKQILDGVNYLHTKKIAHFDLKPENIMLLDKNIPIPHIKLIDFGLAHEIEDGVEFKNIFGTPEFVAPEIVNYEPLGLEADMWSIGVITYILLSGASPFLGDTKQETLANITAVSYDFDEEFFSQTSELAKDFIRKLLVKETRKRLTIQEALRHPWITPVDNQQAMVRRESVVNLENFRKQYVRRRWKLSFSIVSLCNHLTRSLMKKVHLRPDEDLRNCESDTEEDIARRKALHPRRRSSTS
Sequence of Ros (P08922 28-2347): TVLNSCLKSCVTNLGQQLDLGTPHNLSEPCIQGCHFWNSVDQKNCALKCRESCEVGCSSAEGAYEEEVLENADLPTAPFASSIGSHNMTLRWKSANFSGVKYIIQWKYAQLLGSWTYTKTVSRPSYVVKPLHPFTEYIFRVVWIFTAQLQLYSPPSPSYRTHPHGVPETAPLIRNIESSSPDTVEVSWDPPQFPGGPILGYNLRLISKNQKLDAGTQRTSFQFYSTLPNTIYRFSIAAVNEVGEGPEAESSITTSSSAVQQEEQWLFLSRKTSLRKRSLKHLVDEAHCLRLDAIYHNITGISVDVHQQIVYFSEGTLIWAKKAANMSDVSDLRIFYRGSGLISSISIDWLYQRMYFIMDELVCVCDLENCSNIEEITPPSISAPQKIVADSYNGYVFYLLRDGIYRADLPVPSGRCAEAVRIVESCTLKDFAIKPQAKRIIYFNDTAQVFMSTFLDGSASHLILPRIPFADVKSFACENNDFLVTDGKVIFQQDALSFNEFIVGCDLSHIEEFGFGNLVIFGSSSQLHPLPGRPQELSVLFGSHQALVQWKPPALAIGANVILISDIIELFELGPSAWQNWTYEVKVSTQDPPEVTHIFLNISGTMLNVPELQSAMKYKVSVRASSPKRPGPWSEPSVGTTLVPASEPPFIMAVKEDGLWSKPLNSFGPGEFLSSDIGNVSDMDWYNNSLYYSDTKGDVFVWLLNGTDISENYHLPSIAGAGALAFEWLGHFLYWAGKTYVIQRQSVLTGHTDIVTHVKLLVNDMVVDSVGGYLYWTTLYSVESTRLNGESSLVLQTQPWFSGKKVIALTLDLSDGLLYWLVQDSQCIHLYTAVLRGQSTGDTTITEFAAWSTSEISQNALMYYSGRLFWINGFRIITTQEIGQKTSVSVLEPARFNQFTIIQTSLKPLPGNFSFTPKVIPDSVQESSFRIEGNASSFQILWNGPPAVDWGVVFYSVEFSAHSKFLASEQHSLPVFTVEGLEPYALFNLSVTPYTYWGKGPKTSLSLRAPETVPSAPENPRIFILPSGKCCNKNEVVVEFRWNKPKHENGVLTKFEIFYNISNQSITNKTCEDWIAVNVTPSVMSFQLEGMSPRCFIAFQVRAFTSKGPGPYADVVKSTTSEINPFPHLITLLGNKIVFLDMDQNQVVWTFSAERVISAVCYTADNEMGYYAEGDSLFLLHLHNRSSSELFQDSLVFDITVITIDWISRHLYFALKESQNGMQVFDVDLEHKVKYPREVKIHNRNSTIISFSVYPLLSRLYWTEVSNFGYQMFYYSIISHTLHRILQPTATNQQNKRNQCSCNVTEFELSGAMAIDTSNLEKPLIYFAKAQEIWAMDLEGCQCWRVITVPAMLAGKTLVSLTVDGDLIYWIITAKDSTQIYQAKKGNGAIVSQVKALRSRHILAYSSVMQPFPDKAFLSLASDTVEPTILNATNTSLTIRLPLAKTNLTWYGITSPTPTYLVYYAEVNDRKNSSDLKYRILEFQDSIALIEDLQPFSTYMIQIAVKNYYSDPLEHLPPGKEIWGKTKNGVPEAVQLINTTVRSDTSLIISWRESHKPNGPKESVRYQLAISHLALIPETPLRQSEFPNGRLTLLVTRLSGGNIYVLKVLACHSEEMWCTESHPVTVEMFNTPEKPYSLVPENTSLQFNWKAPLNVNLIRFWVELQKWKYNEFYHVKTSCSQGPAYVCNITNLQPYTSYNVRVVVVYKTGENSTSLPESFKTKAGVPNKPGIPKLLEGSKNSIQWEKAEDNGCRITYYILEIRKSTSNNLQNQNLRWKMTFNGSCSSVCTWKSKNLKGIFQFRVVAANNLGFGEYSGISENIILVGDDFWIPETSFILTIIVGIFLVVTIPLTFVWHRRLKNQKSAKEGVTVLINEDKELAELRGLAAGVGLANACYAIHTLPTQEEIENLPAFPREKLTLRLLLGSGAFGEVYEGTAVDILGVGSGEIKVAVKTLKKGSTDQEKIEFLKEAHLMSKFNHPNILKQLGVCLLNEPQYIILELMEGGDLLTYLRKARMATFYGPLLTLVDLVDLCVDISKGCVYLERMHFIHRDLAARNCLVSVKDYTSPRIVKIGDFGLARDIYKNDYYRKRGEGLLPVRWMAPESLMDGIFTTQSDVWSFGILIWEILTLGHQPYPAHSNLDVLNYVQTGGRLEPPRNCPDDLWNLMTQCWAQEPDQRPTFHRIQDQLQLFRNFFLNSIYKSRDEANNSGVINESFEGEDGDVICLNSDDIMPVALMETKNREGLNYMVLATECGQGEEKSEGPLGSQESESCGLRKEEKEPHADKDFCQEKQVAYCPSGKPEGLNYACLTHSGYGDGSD
Sequence of JNK3 (P53779 whole entry): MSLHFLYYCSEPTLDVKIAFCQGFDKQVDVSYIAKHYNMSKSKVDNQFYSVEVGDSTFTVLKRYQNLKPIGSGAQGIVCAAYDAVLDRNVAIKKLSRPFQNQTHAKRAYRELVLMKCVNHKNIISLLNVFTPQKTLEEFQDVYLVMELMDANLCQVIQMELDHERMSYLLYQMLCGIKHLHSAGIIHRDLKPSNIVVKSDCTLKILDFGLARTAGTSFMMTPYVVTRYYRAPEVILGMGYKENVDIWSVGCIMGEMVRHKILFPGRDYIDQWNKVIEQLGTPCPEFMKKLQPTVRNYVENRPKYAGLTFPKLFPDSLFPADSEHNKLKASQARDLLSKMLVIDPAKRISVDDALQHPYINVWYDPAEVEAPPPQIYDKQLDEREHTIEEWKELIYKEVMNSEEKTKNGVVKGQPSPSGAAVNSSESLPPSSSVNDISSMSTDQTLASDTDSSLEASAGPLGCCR
Sequence of JNK2alpha2 (P45984 whole entry): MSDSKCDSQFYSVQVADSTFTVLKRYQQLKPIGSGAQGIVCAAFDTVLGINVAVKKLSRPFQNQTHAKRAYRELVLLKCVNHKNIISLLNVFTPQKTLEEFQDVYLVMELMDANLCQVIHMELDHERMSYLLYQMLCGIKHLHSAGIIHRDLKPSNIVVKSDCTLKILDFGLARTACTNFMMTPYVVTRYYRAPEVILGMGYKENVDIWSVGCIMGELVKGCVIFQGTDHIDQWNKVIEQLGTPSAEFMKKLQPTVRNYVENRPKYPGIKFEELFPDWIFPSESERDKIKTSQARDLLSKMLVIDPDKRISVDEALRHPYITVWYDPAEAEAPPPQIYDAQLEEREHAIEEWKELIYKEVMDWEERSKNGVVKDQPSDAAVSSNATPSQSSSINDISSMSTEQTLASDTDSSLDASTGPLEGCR
Sequence of p38alpha (Q16539 whole entry): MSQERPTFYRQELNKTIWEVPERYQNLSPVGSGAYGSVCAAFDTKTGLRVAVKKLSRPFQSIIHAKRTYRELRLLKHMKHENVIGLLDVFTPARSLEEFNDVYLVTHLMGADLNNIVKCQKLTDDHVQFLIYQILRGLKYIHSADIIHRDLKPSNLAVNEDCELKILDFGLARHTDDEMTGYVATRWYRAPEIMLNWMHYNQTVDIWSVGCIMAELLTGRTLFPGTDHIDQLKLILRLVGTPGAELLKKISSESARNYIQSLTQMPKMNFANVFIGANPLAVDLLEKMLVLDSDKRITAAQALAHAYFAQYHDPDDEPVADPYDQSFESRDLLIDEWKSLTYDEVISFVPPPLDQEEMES
Sequence of AURKA (O14965 whole entry): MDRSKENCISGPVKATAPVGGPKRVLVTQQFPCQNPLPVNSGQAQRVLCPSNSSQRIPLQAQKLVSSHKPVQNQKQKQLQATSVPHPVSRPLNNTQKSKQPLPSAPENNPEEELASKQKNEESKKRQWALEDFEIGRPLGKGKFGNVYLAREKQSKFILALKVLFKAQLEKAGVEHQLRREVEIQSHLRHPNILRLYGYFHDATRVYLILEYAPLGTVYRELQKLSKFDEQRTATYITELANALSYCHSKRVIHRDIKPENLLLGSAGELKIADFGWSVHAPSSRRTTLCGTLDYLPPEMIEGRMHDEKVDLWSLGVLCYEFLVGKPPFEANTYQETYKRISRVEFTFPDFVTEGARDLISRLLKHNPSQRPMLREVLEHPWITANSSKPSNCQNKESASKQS

Compound	Avg POC (AURKA)	Avg POC (CDK9/cyclinT1)	Avg POC (LIMK1)	Avg POC (Pim-2)	Avg POC (JNK2alpha2)	Avg POC (MINK)	Avg POC (MSSK1)	Avg POC (JAK3)	Avg POC (MRCKalpha)	Avg POC (KIT)	Avg POC (JNK3)	Avg POC (p38delta)	Avg POC (DAPK2)	Avg POC (EphA8)	Avg POC (Mer)	Avg POC (ErbB4)	Avg POC (PDGFRalpha)	Avg POC (ROCK-II)	Avg POC (Flt1)	Avg POC (CDK3/cyclinE)	further results
COCCN1C[C@@H](NC(=O)Nc2c(C)c(-c3ccnc(C)c3)nn2-c2ccccc2)[C@H](c2ccc(F)c(F)c2)C1 [Example 2, 1-((3S,4R)-4-(3,4-difluorophenyl)-1-(2-methoxyethyl)pyrrolidin-3-yl)-3-(4-methyl-3-(2-methylpyridin-4-yl)-1-phenyl-1H-pyrazol-5-yl)urea]	116 POC	104 POC	100 POC	86.5 POC	100 POC	98 POC	118 POC	103.5 POC	113 POC	101.5 POC	111.5 POC	107.5 POC	109 POC	104.5 POC	90.5 POC	98 POC	110.5 POC	102.5 POC	86 POC	98 POC	Avg POC (p38alpha): 112 POC; Avg POC (DRAK1): 86.5 POC; Avg POC (IRAK1): 112.5 POC; Avg POC (TrkB): 1.5 POC; Avg POC (Plk2): 99.5 POC; Avg POC (NEK2): 96 POC; Avg POC (HIPK2): 95 POC; Avg POC (NEK11): 97 POC; Avg POC (p70S6K): 105.5 POC; Avg POC (JAK2): 112.5 POC; Avg POC (HIPK3): 99.5 POC; Avg POC (Syk): 86 POC; Avg POC (WNK2): 98 POC; Avg POC (Rsk2): 106 POC; Avg POC (ERK2): 106.5 POC; Avg POC (CDK5/p35): 113 POC; Avg POC (NEK3): 97 POC; Avg POC (PKCdelta): 102.5 POC; Avg POC (SRPK1): 97.5 POC; Avg POC (Ros): 105 POC
COCCN1C[C@@H](NC(=O)Nc2c(C)c(-c3cnc(C)nc3)nn2-c2ccccc2)[C@H](c2cc(F)cc(F)c2)C1 [Example 14, 1-((3S,4R)-4-(3,5-difluorophenyl)-1-(2-methoxyethyl)pyrrolidin-3-yl)-3-(4-methyl-3-(2-methylpyrimidin-5-yl)-1-phenyl-1H-pyrazol-5-yl)urea]	106 POC	104 POC	98 POC	103.5 POC	97 POC	89.5 POC	109 POC	101 POC	124.5 POC	101.5 POC	121 POC	102.5 POC	107 POC	104.5 POC	78 POC	101.5 POC	114.5 POC	93.5 POC	81 POC	100.5 POC	Avg POC (p38alpha): 101 POC; Avg POC (DRAK1): 101.5 POC; Avg POC (IRAK1): 108.5 POC; Avg POC (TrkB): 4.5 POC; Avg POC (Plk2): 102 POC; Avg POC (NEK2): 97.5 POC; Avg POC (HIPK2): 99 POC; Avg POC (NEK11): 91 POC; Avg POC (p70S6K): 98 POC; Avg POC (JAK2): 109 POC; Avg POC (HIPK3): 89 POC; Avg POC (Syk): 88 POC; Avg POC (WNK2): 99.5 POC; Avg POC (Rsk2): 99.5 POC; Avg POC (ERK2): 92.5 POC; Avg POC (CDK5/p35): 115.5 POC; Avg POC (NEK3): 101 POC; Avg POC (PKCdelta): 99.5 POC; Avg POC (SRPK1): 109.5 POC; Avg POC (Ros): 91 POC
